From patent US20220008438A1 (priority 2020, published 2022)

Columns and labels:
[1] = in vivo, cited from earlier work
[2] = system: primary HIV-1 isolated; test: HIV-1 replication in MT2 cell line assays; type: cell-based
Description: The total destruction of the viral culture was observed from concentrations of 25 μg/ml of TMA's Maslinic acid, while between 5 and 20 μg/ml, a decrease in viability was observed between 57% and 19%.

[3] = system: murine macrophages; conditions: cited from earlier work
[4] = target: HIV-1 protease (Human immunodeficiency virus type 1 group M subtype B, UniProt P04585); conditions: in vitro; cited from earlier work
[5] = in vivo
[6] = mechanically ventilated adult patients with moderate-to-severe ARDS, confirmed Covid-19 infection; cited from earlier work

SMILES | values in the biological fluids [1] | concentration giving total destruction of the viral culture [2] | cytopathic effect ([2]; MT2 cell line, 25 μg/ml) | level of p24 antigen in the culture supernatant ([2]; MT2 cell line, 25 μg/ml) | cytopathic effect ([2]; MT2 cell line, 30 μg/ml) | p24 antigen ([2]; MT2 cell line, 30 μg/ml) | inhibitory effect on replication ([2]; between 5 and 20 μg/ml, cultures infected with different amounts of HIV-1) | pro-inflammatory cytokine generation [3] | activity against the enzyme isolated from the HIV-1 protease [4] | bioavailability [5] | bioavailability compared ([1]; human) | effectiveness, share of cases [6]
CC1(C)CC[C@]2(C(=O)O)CC[C@]3(C)C(=CC[C@@H]4[C@@]5(C)CC[C@H](O)C(C)(C)[C@@H]5CC[C@]43C)[C@@H]2C1 [OA, Oleanolic acid] | increased in the biological fluids in a dose-dependent manner | – | – | – | – | – | – | – | – | – | – | –
CC1(C)CC[C@]2(C(=O)O)CC[C@]3(C)C(=CC[C@@H]4[C@@]5(C)C[C@@H](O)[C@H](O)C(C)(C)[C@@H]5CC[C@]43C)[C@@H]2C1 [Maslinic acid, 2-alfa,3-betadihydroxy-28-carboxiolean-12-eno] | increased in the biological fluids in a dose-dependent manner | ≥ 25 µg/mL | decrease was detected | decrease was detected | absence total cytopathic effect | decrease in p24 antigen | did not produce any inhibitory effect | strong reduction | has in vitro activity | 60% | higher than that of OA | –
C[C@@H]1C[C@H]2[C@@H]3CCC4=CC(=O)C=C[C@]4(C)[C@@]3(F)[C@@H](O)C[C@]2(C)[C@@]1(O)C(=O)CO [Dexametasone] | – | – | – | – | – | – | – | – | – | – | – | 33%
